Assay results: patent publication US20150111934A1, “CRYSTALLINE FORMS OF AN ADRENERGIC AGONIST” (DIPHARMA FRANCIS S.R.L., priority 2013, published 2015)

What was measured:
[1] = cited from earlier work; for physical stability of the crystalline form: prior art forms of U.S. Pat. No. 7,342,117
[2] = solubility in water
[3] = physchem; conditions: 25 °C, water

solubility in water (in words) [2]	Compound	physical stability of the crystalline form [1]	other results
–	Cl.Cl.Nc1nc(CC(=O)Nc2ccc(CCNCC(O)c3ccccc3)cc2)cs1 (stereo not drawn)	–	hygroscopicity and stability of the crystalline salt ([1]; as demonstrated in U.S. Pat. No. 7,342,117): highly hygroscopic and unstable
practically insoluble in water	Nc1nc(CC(=O)Nc2ccc(CCNC[C@H](O)c3ccccc3)cc2)cs1 [Crystalline form α of Mirabegron, (R)-2-(2-Aminothiazol-4-yl)-4′-[2-[(2-hydroxy-2-phenylethyl)amino]ethyl]acetanilide]	stable solid form	–
–	CC(=O)O.Nc1nc(CC(=O)Nc2ccc(CCNC[C@H](O)c3ccccc3)cc2)cs1 [Mirabegron acetate salt, 2-(2-amino-1,3-thiazol-4-yl)-N-[4-(2-{[(2R)-2-hydroxy-2-phenylethyl]amino}ethyl)phenyl]acetamide acetate salt]	–	solubility [3]: ~100 mg/mL
almost wholly insoluble in water	Nc1nc(CC(=O)Nc2ccc(CCNC[C@H](O)c3ccccc3)cc2)cs1 [Mirabegron base, (R)-2-(2-Aminothiazol-4-yl)-4′-[2-[(2-hydroxy-2-phenylethyl)amino]ethyl]acetanilide]	–	–
–	Nc1nc(CC(=O)Nc2ccc(CCNC[C@H](O)c3ccccc3)cc2)cs1 [form β, (R)-2-(2-Aminothiazol-4-yl)-4′-[2-[(2-hydroxy-2-phenylethyl)amino]ethyl]acetanilide]	metastable polymorph	–
